Tests used:
[1] = biological target: Lck (h) (Homo sapiens, UniProt P06239); assay: Lck Human  Kinase Enzymatic Radiometric Assay; type: biochemical; details: read-out: Lck IC50 nM Range*
Method in brief: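 Substrate 33P-incorporation measured by scintillation counting after spotting on P30 filtermat and phosphoric acid washes. Human Lck reacted 40 min at RT in 50 mM Tris pH 7.5 with 10 mM MgAcetate, [gamma-33P]-ATP, 250 uM Cdc2 peptide, 0.1 mM EGTA and 0.1 mM Na3VO4.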

[2] = biological target: T1, Recombinant (1-346) HPK1 (h) (Homo sapiens, UniProt Q92918); assay: HPK1 Human STE Kinase Enzymatic Radiometric Assay; type: biochemical; details: read-out: HPK1 IC50 nM Range*
T1 construct: Recombinant (1-346) HPK1 (h) is incubated with 8 mM MOPS pH 7.0
T1 sequence (Q92918 1-346): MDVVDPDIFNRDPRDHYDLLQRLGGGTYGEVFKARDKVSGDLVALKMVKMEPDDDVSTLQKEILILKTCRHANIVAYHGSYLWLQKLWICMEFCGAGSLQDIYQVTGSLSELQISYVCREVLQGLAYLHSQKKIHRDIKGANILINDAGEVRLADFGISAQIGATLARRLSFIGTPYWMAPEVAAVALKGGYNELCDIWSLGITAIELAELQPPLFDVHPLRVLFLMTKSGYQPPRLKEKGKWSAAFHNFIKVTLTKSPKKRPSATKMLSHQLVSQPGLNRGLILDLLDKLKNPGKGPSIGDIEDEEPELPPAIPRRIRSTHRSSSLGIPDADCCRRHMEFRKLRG
Experimental: A stock solution of 10 mM of test compound is prepared in DMSO. The compound plate was prepared by 3-fold and 9-point serial dilutions. […] The reaction is initiated by The addition of the Mg/ATP mix. After incubation for 40 minutes at RT, the reaction is stopped by the addition of phosphoric acid to a concentration of 0.5%.

Sequence of Lck (h) (P06239 whole entry): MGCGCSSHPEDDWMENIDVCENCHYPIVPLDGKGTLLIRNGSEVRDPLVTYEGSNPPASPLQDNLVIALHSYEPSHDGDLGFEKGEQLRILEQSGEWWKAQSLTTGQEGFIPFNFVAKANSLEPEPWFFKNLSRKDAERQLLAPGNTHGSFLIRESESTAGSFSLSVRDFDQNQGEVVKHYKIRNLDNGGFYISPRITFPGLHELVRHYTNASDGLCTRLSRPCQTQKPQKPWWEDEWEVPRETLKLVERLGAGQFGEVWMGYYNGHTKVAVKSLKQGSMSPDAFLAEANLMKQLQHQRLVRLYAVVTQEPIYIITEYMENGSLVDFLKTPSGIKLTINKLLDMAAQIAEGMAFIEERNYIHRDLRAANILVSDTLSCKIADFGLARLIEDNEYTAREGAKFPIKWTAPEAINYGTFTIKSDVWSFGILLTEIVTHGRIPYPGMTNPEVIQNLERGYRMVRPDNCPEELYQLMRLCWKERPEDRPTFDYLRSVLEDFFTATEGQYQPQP

SMILES	IC50 [1]	IC50 [2]
CC(C)N1CC=C(c2ccc(-c3cc(-c4ccc5c(c4)CCNC5=O)c(N)nc3F)cc2)C1 [I-121, 6-(2-amino-6-fluoro-5-(4-(1-isopropyl-2,5-dihydro-1H-pyrrol-3-yl)phenyl)pyridin-3-yl)-3,4-dihydroisoquinolin-1(2H)-one]	> 1000 nM	0.1 to 10 nM
COCCN1CCCC(c2ccc(-c3cc(-c4ccc5c(c4)CCNC5=O)c(N)nc3F)cc2)C1 (stereo not drawn) [I-122, 6-(2-amino-6-fluoro-5-(4-(1-(2-methoxyethyl)piperidin-3-yl)phenyl)pyridin-3-yl)-3,4-dihydroisoquinolin-1(2H)-one]	> 1000 nM	0.1 to 10 nM
Nc1nc(F)c(-c2ccc(C3=CCN(CCO)C3)cc2)cc1-c1ccc2c(c1)CCNC2=O [I-123, 6-(2-amino-6-fluoro-5-(4-(1-(2-hydroxyethyl)-2,5-dihydro-1H-pyrrol-3-yl)phenyl)pyridin-3-yl)-3,4-dihydroisoquinolin-1(2H)-one]	> 1000 nM	0.1 to 10 nM
COCCN1CC=C(c2ccc(-c3cc(-c4ccc5c(c4)CCNC5=O)c(N)nc3F)cc2)C1 [I-124, 6-(2-amino-6-fluoro-5-(4-(1-(2-methoxyethyl)-2,5-dihydro-1H-pyrrol-3-yl)phenyl)pyridin-3-yl)-3,4-dihydroisoquinolin-1(2H)-one]	> 1000 nM	0.1 to 10 nM
CC(C)(O)CN1C[C@H]2C[C@@]2(c2ccc(-c3cc(-c4ccc5c(c4)CCNC5=O)c(N)nc3F)cc2)C1 [I-125, 6-(2-amino-6-fluoro-5-(4-((1R,5S)-3-(2-hydroxy-2-methylpropyl)-3-azabicyclo[3.1.0]hexan-1-yl)phenyl)pyridin-3-yl)-3,4-dihydroisoquinolin-1(2H)-one]	> 1000 nM	0.1 to 10 nM
CC(C)(O)CN1C[C@@H]2C[C@]2(c2ccc(-c3cc(-c4ccc5c(c4)CCNC5=O)c(N)nc3F)cc2)C1 [I-126, 6-(2-amino-6-fluoro-5-(4-((1S,5R)-3-(2-hydroxy-2-methylpropyl)-3-azabicyclo[3.1.0]hexan-1-yl)phenyl)pyridin-3-yl)-3,4-dihydroisoquinolin-1(2H)-one]	> 1000 nM	0.1 to 10 nM
Nc1nc(F)c(-c2ccc(C3=CCN(CC(F)F)C3)cc2)cc1-c1ccc2c(c1)CCNC2=O [I-127, 6-(2-amino-5-(4-(1-(2,2-difluoroethyl)-2,5-dihydro-1H-pyrrol-3-yl)phenyl)-6-fluoropyridin-3-yl)-3,4-dihydroisoquinolin-1(2H)-one]	> 1000 nM	0.1 to 10 nM
Nc1nc(F)c(-c2ccc(S(=O)(=O)C3CCNCC3)cc2)cc1-c1ccc2c(c1)CCNC2=O [I-128, 6-(2-amino-6-fluoro-5-(4-(piperidin-4-ylsulfonyl)phenyl)pyridin-3-yl)-3,4-dihydroisoquinolin-1(2H)-one]	> 1000 nM	11 to 100 nM
CN1CCC(n2cc(-c3cc(-c4cc5c(cc4F)C(=O)NCC5)c(N)nc3F)cn2)CC1 [I-129, 6-(2-amino-6-fluoro-5-(1-(1-methylpiperidin-4-yl)-1H-pyrazol-4-yl)pyridin-3-yl)-7-fluoro-3,4-dihydroisoquinolin-1(2H)-one]	101 to 1000 nM	0.1 to 10 nM
CC(C)[C@H]1CN(c2ccc(-c3cc(-c4ccc5c(c4)CCNC5=O)c(N)nc3F)cc2C(F)(F)F)CCO1 [I-130, (S)-6-(2-amino-6-fluoro-5-(4-(2-isopropylmorpholino)-3-(trifluoromethyl)phenyl)pyridin-3-yl)-3,4-dihydroisoquinolin-1(2H)-one]	> 1000 nM	11 to 100 nM
CCN1CCOCC1c1ccc(-c2cc(-c3ccc4c(c3)CCNC4=O)c(N)nc2F)cc1 (stereo not drawn) [I-131, 6-(2-amino-5-(4-(4-ethylmorpholin-3-yl)phenyl)-6-fluoropyridin-3-yl)-3,4-dihydroisoquinolin-1(2H)-one]	> 1000 nM	0.1 to 10 nM
CC(C)N1CCOCC1c1ccc(-c2cc(-c3ccc4c(c3)CCNC4=O)c(N)nc2F)cc1 (stereo not drawn) [I-132, 6-(2-amino-6-fluoro-5-(4-(4-isopropylmorpholin-3-yl)phenyl)pyridin-3-yl)-3,4-dihydroisoquinolin-1(2H)-one]	> 1000 nM	0.1 to 10 nM
Nc1nc(F)c(-c2ccc(C3COCCN3CC(F)F)cc2)cc1-c1ccc2c(c1)CCNC2=O (stereo not drawn) [I-133, 6-(2-amino-5-(4-(4-(2,2-difluoroethyl)morpholin-3-yl)phenyl)-6-fluoropyridin-3-yl)-3,4-dihydroisoquinolin-1(2H)-one]	> 1000 nM	0.1 to 10 nM
COCCN1CCOCC1c1ccc(-c2cc(-c3ccc4c(c3)CCNC4=O)c(N)nc2F)cc1 (stereo not drawn) [I-134, 6-(2-amino-6-fluoro-5-(4-(4-(2-methoxyethyl)morpholin-3-yl)phenyl)pyridin-3-yl)-3,4-dihydroisoquinolin-1(2H)-one]	> 1000 nM	0.1 to 10 nM
Nc1nc(F)c(-c2ccc([C@]34CNC[C@H]3C4)cc2)cc1-c1ccc2c(c1)CCNC2=O [I-135, 6-(5-(4-((1R,5S)-3-azabicyclo[3.1.0]hexan-1-yl)phenyl)-2-amino-6-fluoropyridin-3-yl)-3,4-dihydroisoquinolin-1(2H)-one]	> 1000 nM	0.1 to 10 nM
CC(C)[C@H]1CN(c2ccc(-c3cc(-c4ccc5c(c4)CCNC5=O)c(N)nc3Cl)cc2)CCO1 [I-136, (S)-6-(2-amino-6-chloro-5-(4-(2-isopropylmorpholino)phenyl)pyridin-3-yl)-3,4-dihydroisoquinolin-1(2H)-one]	> 1000 nM	101 to 1000 nM
CC(C)[C@@H]1CN(c2ccc(-c3cc(-c4ccc5c(c4)CCNC5=O)c(N)nc3Cl)c(F)c2)CCO1 [I-137, (R)-6-(2-amino-6-chloro-5-(2-fluoro-4-(2-isopropylmorpholino)phenyl)pyridin-3-yl)-3,4-dihydroisoquinolin-1(2H)-one]	> 1000 nM	11 to 100 nM
Nc1nc(F)c(-c2ccc(C3=CCN(CCO)CC3)cc2)cc1-c1ccc2c(c1)CCNC2=O [I-138, 6-(2-amino-6-fluoro-5-(4-(1-(2-hydroxyethyl)-1,2,3,6-tetrahydropyridin-4-yl)phenyl)pyridin-3-yl)-3,4-dihydroisoquinolin-1(2H)-one]	> 1000 nM	0.1 to 10 nM
COCCN1CC=C(c2ccc(-c3cc(-c4ccc5c(c4)CCNC5=O)c(N)nc3F)cc2)CC1 [I-139, 6-(2-amino-6-fluoro-5-(4-(1-(2-methoxyethyl)-1,2,3,6-tetrahydropyridin-4-yl)phenyl)pyridin-3-yl)-3,4-dihydroisoquinolin-1(2H)-one]	> 1000 nM	0.1 to 10 nM
COCCN1C[C@H]2C[C@@]2(c2ccc(-c3cc(-c4ccc5c(c4)CCNC5=O)c(N)nc3F)cc2)C1 [I-140, 6-(2-amino-6-fluoro-5-(4-((1R,5S)-3-(2-methoxyethyl)-3-azabicyclo[3.1.0]hexan-1-yl)phenyl)pyridin-3-yl)-3,4-dihydroisoquinolin-1(2H)-one]	> 1000 nM	0.1 to 10 nM
CC(C)N1C[C@H]2C[C@@]2(c2ccc(-c3cc(-c4cc5c(cc4F)C(=O)NCC5)c(N)nc3F)cc2)C1 [I-141, 6-(2-amino-6-fluoro-5-(4-((1R,5S)-3-isopropyl-3-azabicyclo[3.1.0]hexan-1-yl)phenyl)pyridin-3-yl)-7-fluoro-3,4-dihydroisoquinolin-1(2H)-one]	> 1000 nM	0.1 to 10 nM

From patent publication US20240343704A1, “HALO-SUBSTITUTED AMINO PYRIDINE COMPOUNDS AS INHIBITORS OF THE HAEMATOPOIETIC PROGENITOR KINASE 1 (HPK1)” (priority 2021, published 2024)
